Experimental data as given in patent publication US10624336B2, “In-vitro embryonic culture medium comprising an inhibitor of cathepsin L and the use of the same in embryo cryopreservation” (BEIJING UNIVERSITY OF AGRICULTURE, priority 2016, dated 2020).
Values joined by “and” are separate entries in the source; they are usually repeats but may differ in a detail not shown here. Equal values may be shown once. Marks after values point to notes of the source that are not given here.

System: normally hatched blastocysts from mice
Test: Thawed recovery rate of normally hatched mouse blastocysts incubated with E-64d before programmed freezing
Format: cell-based
Details: for the thawed recovery rate (%): 2 h incubation before freezing, counted after 24-hour recovery, mean ± SD
Protocol: Female mice with pale pink vulvas were randomized and intraperitoneally injected with pregnant mare serum gonadotrophin (PMSG) at a dosage of 10 IU/mouse. After 48 hours, the female mice were further injected with human chorionic gonadotropin (hCG) at a dosage of 10 IU/mouse, and then were immediately housed in a cage with adult male mice at a ratio of 1:1 overnight for mating. The mice were checked for mating at 8 a.m. next day and injected with anti-PMSG (A-PMSG) at a dosage of 10 IU/mouse once the vaginal suppository was observed. The mice were sacrificed at 9 a.m. on Day 5 after the vaginal suppository was observed. The uteruses on both sides of the mice were removed and flushed with the PBS working solution to obtain normally hatched blastocysts.
The normally hatched blastocysts as obtained (about 100 blastocysts) were rinsed with 100 μl PBS solution for three times and then with 100 μl CZB working solution for another three times. Afterwards, the blastocysts were transferred into drops of the E-64d-CZB working solutions at 0, 0.5, 1, 1.5, 2, 3, 5, and 10 μmol/L, and then incubated in vitro in an incubator at 37° C., 5% CO2 in air, and 100% humidity for 2 hours.
The incubated embryos were washed twice with the PBS working solution, then subjected to PBS removal through a three-step process, and equilibrated for 5 min in a freezing solution (Bioniche, ViGRO™, ETHYLENE GLYCOL FREEZE (with Sucrose), Lot:150206-2P). Afterwards, the embryos were placed in 0.25 ml plastic straws. Then the straws containing the embryos were placed in a control rate freezer, cooled to −5° C. at a rate of 1° C./min, and then equilibrated for 10 min. During equilibration, the straws containing the embryos were clamped with pre-cooled forceps at the upper end for 3-5 seconds, thereby the freezing solution forming ice crystals, that is to say, ice seeding was completed. The straws containing the embryos were equilibrated for another 10 minutes, and then cooled down to −35° C. at a rate of 0.3° C./min. Subsequently, the frozen straws were placed in liquid nitrogen.
During thawing, the frozen straws were removed from the liquid nitrogen, gently shaken at room temperature for 5-10 seconds, placed in water at 35° C. for 10-15 seconds, and then removed from the water. The plugs at both ends of the straws were cut off, and then the embryos in the straws were placed in watch glasses, and subjected to the removal of the freezing solution through a three-step process. After recovery by thawing, the embryos were placed into drops of equilibrated fresh CZB for 24-hour recovery. After 24 hours, the thawed recovery rate was counted.
The three-step process for PBS removal as mentioned above was specifically as follows. Before the embryos were immersed in the freezing solution and then placed in straws for freezing, they were washed with 100 μl of the drops of the following mixed solutions sequentially (3-5 min for each mixed solution): the freezing solution ⅓+PBS ⅔, the freezing solution ½+PBS ½, and the freezing solution ⅔+PBS ⅓.
The three-step process for the removal of the freezing solution as mentioned above was specifically as follows. The embryos were washed with 100 μl of the drops of the following mixed solutions sequentially (3-5 min for each mixed solution): the freezing solution ⅔+PBS ⅓, the freezing solution ½+PBS ½, and the freezing solution ⅓+PBS ⅔.
All the experimental data was subjected to Chi-square analysis by SPSS 21.0 statistical software.

CCOC(=O)[C@H]1O[C@@H]1C(=O)N[C@@H](CC(C)C)C(=O)NCCC(C)C [E-64d, ethyl (2S,3S)-3-[[(2S)-4-methyl-1-(3-methylbutylamino)-1-oxopentan-2-yl]carbamoyl]oxirane-2-carboxylate]
the thawed recovery rate (%) (E-64d 0.5 μmol/L in CZB medium): 75.35 ± 3.51^b %
the thawed recovery rate (%) (E-64d 1 μmol/L in CZB medium): 80.67 ± 5.40^Aa %
the thawed recovery rate (%) (E-64d 1.5 μmol/L in CZB medium): 79.45 ± 4.28^Aa %
the thawed recovery rate (%) (E-64d 2 μmol/L in CZB medium): 78.65 ± 2.56^b %
the thawed recovery rate (%) (E-64d 3 μmol/L in CZB medium): 76.26 ± 5.32^b %
thawed recovery rate compared with the control (in words) (E-64d 5 μmol/L): nearly comparable to that in absence of the inhibitor
the thawed recovery rate (%) (E-64d 5 μmol/L in CZB medium): 72.64 ± 2.13^B %
decrease of the thawed recovery rate as compared with the control (E-64d 10 μmol/L): about 15%
the thawed recovery rate (%) (E-64d 10 μmol/L in CZB medium): 62.58% and 62.58 ± 3.72^B %
thawed recovery rate compared with the control (in words) (E-64d 0.5-3 μmol/L): improved to different extents as compared with the control
improvement of the thawed recovery rate as compared with the control (E-64d 1 or 1.5 μmol/L): about 10%
